Source: article PMC10604444, “Extra-Synaptic GABAA Receptor Potentiation and Neurosteroid-Induced Learning Deficits Are Inhibited by GR3027, a GABAA Modulating Steroid Antagonist” (Biomolecules, 2023)
Like-named read-outs stand apart in the source and are kept apart here.

Columns and labels:
[1] = target: T1, human α5β3γ2L GABAA receptors expressed in HEK-293 cells (Homo sapiens, UniProt P28472+P31644); assay: Whole-cell patch clamp of GABA/THDOC-evoked currents, extra-synaptic protocol (Dynaflow); format: cell-based; settings: for Current with GR3027 alone: baseline holding current +2.15 ± 1.4 pA, n = 9, not significant
T1 construct: The coding regions of the human GABAA receptor subunits were then amplified by PCR; expressed in transfected cells; host or cells: HEK-293 (permanently transfected, pcDNA3.1 vectors, CMV promoter)
Description: Wild-type HEK-293 cells (passage 4, originating from Pasteur Institute, Paris, France) were permanently transfected with vectors including the human CMV promoter for the constitutive expression of the human α5, β3, and γ2L GABAA receptor subunits (α5β3γ2L) or the human α1, β2, and γ2L GABAA receptor subunits (α1β2γ2L). The production of the plasmids used in the sub-cloning of the different subunits is published in Rahman et al..
The electrophysiological recordings from HEK-293 cells were performed with the whole-cell voltage clamp technique, at room temperature (21–23 °C). After compensation for liquid junction potential, a steady holding potential of −17 mV was used in all experiments. Patch pipettes were pulled from borosilicate glass (Bergman Labora AB, Danderyd, Sweden) and polished to a resistance of 2–5 MΩ when filled with intracellular solution and immersed in a bath (extracellular) solution (for solutions, see below). The pipette tips were filled by immersion in standard intracellular solution and subsequent back-filling with intracellular solution. The recordings were made using an Axopatch 200B amplifier and a Digidata 1322A (Axon Instruments, Foster City, CA, USA) controlled via a Pentium processor-based personal computer. Data were acquired using the pCLAMP software sampled at 10 kHz, filtered at 2–10 kHz, and analyzed with Clampfit (versions 9.0, both from Axon Instruments, Foster City, CA, USA). A series resistance between the pipette and cell membrane not higher than 20 MΩ was accepted. No series resistance compensation was used. The stability of series resistance was monitored repeatedly from the time course of capacitative transients during the experiments. The measured liquid junction potential between extracellular and intracellular solutions was subtracted from all data presented, as previously described. All experiments were performed at room temperature (21–23 °C).
In all electrophysiological experiments, tetrahydro-deoxycorticosterone (THDOC) was used as a positive GABAA receptor steroid modulator (PAM) to mimic the effect of AP on central GABAA channels. […] THDOC (Sigma Chemical Co., St. Louis, MO, USA) and GR3027 (3α-ethynyl, 3β-hydroxyl, 5α-androstan-17-oxime, golexanolone, Umecrine Cognition AB, Stockholm, Sweden) were dissolved in dimethyl sulfoxide (DMSO) using ultrasound, for the preparation of solutions containing a final DMSO concentration of 0.1%. GR3027 was discovered within a series of molecules developed and patented by T. Bäckström and G. Ragagnin, (patent WO 2008/063128). All solutions were complemented with DMSO to achieve the same final concentration as in the steroid-containing test solution. GABA (Sigma Chemical Co., St. Louis, MO, USA) was first prepared as a stock solution (dissolved in EC with ultrasonic treatment) to the desired concentrations, with the corresponding final concentrations of test solutions (30 µM and 0.3 µM; see protocols below). GABA was added to the experimental solution without a change in osmolarity.
The experimental protocols were designed to mimic the physiological conditions of the tonic (extra-synaptic) and phasic (synaptic) activation of GABAA receptors observed in central neurons, depending on the subunit compositions, respectively. GABA-evoked currents in HEK-293 cells expressing extra-synaptic (α5β3γ2L) or synaptic (α1β2γ2L) types of GABAA receptors were studied using the conventional whole-cell patch clamp technique. To mimic the physiological GABA exposure, the HEK-293 cells expressing α1β2γ2L GABAA receptors were exposed to short applications (40 ms) of 30 µM GABA, whereas HEK-293 cells expressing α5β3γ2L GABAA receptors were exposed to prolonged applications (6 s) of 0.3 µM GABA, either in the absence or presence of THDOC and/or GR3027.

[2] = Pharmacokinetic analysis of GR3027 in plasma after i.v. and p.o. administration; format: in vivo, rat; settings: for AUC: male Sprague-Dawley rats, 0-24 h; for Cmax / Tmax / half-life: rat plasma; for half-life: read-out: t½; for k el: in vivo
Experimental: Ten male Sprague-Dawley rats were used to assess PK with GR3027 given orally and intravenously, respectively. Animals were kept at room temperature with artificial light under a 12/12 h light/dark schedule, and with food and water ad libitum. Animals were given 2 mg/kg i.v. in 10% 2-hydroxypropyl-beta-cyclodextrin or 10 mg/kg orally. Approximately 50 µL blood samples were taken at 15 min, 30 min, 1 h, 2 h, 4 h, 8 h, 12 h, and 24 h after oral dosing, and 5 min, 15 min, 30 min, 1 h, 2 h, 4 h, 8 h, 12 h, and 24 h after intravenous dosing, and plasma was frozen. The analysis method has been described earlier and is here briefly described. All the samples were analyzed in triplicate by Admescope Ltd., Oulu, Finland, using an LC/MS/MS method developed for the purpose, using a Waters ACQUITY UPLC_Waters XEVO-TQS triple-quadrupole mass spectrometer.
Blood/plasma samples were obtained at several time points after the i.v. and p.o. administration of GR3027 to rats. The maximum plasma concentration (Cmax) and the time to Cmax (Tmax) were derived directly from the plasma concentration data. The results are shown in Table 4 as the area under the concentration–time curve (AUC, 0–24 h), elimination half-life in plasma (t1/2), elimination rate constant (Ke), total body clearance (CL), and mean residence time (MRT), i.e., how long GR3027 remained in the body. The tentative oral bioavailability (F) was calculated by dividing the dose-normalized AUC after p.o. administration by the dose-normalized AUC after i.v. administration, i.e., F = [(AUC(p.o.)/Dose(p.o.))///(AUC(i.v)/Dose (i.v.))], and reported as percentages (%).

[3] = system: patients with hepatic encephalopathy; set-up: method as in PMID 33894327; settings: humans; cited from earlier work
[4] = male, Sprague-Dawley, iv, 2 mg/kg i.v., mean
[5] = male, Sprague-Dawley, po, 10 mg/kg p.o., mean

T1 sequence (P31644 32-462): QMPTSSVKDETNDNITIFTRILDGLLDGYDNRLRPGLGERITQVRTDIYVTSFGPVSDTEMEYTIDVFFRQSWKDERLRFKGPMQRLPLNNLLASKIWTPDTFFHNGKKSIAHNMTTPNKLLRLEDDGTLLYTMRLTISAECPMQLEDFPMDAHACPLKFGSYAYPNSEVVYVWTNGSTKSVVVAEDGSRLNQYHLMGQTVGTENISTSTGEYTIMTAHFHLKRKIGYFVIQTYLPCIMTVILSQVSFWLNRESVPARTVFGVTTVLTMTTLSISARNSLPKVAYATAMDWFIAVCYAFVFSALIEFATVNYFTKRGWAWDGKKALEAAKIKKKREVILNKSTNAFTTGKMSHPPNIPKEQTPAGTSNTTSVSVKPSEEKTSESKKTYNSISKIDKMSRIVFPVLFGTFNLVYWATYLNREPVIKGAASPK
T1 sequence (P28472 26-473 isoform P28472-2 limits assumed): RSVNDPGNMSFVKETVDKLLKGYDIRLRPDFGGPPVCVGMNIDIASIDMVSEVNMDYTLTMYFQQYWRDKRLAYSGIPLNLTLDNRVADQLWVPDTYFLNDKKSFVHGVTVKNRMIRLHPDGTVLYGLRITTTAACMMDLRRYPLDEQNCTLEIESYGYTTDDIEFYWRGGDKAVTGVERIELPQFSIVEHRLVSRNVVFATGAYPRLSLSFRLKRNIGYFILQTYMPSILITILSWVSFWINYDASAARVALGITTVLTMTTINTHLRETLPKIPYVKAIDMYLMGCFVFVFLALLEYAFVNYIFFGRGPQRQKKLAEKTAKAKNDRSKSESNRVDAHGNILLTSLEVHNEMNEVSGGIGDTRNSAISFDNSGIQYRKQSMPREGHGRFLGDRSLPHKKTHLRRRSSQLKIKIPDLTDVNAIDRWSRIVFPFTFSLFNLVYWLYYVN
T1 sequence (P18507 40-475 partner): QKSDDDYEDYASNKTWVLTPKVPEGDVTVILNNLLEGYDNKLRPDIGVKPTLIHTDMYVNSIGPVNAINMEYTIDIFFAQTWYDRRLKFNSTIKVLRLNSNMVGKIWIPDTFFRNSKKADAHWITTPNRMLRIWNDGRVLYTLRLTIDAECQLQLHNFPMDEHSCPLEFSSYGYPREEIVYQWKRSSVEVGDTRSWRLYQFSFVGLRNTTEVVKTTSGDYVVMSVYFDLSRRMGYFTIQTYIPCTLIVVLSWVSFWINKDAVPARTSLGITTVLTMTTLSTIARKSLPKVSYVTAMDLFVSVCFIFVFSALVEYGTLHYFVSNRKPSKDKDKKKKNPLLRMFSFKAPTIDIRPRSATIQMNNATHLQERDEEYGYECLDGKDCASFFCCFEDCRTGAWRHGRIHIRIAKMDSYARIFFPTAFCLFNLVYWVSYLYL

In the case of C#C[C@]1(O)CC[C@@]2(C)[C@@H](CC[C@@H]3[C@@H]2CC[C@]2(C)/C(=N/O)CC[C@@H]32)C1 [GR3027, 3α-ethynyl-3β-hydroxyl-5α-androstan-17-oxime], the IC50 [1] is reported as 344 nM, the “Imax for decrease of AUC of THDOC-potentiated GABA-mediated response” value ([1]; 200 nM THDOC + 0.3 µM GABA) is reported as −35% and the “Imax for decrease of peak current amplitude of THDOC-potentiated GABA-mediated response” value ([1]; 200 nM THDOC + 0.3 µM GABA) is reported as −37%. For the same compound, the “Imax for reduction of THDOC-mediated outward current shift” value ([1]; 200 nM THDOC, absence of GABA) was −33%, the “Mean change of peak current amplitude of GABA-mediated response” value ([1]; 1 µM GR3027 + 0.3 µM GABA, absence of THDOC, SEM 0.9, p = 0.02, n = 7) was −7.0% and the “Mean change of AUC of GABA-mediated response” value ([1]; 1 µM GR3027 + 0.3 µM GABA, absence of THDOC, SEM 1.5, NS, n = 7) was −3.8%. The “Effect on THDOC-induced current response (absence of GABA)” value ([1]; 1 µM GR3027, 1 µM THDOC) was “significantly reduced”, the “Effect on baseline holding current” value ([1]; 1 µM GR3027, absence of THDOC) was “did not change the baseline holding current” and the “Current with GR3027 alone” value ([1]; 1 µM GR3027, no GABA or THDOC) was “+1.6 ± 1.4 pA”. The “Current with GR3027 alone” value ([1]; 3 µM GR3027, no GABA or THDOC) was “+0.73 ± 0.4 pA”, the “Effect on THDOC-induced current response (absence of GABA)” value ([1]; 3 µM GR3027, 0.1, 0.3, 0.6 and 1 µM THDOC) was “significantly reduced” and the IC50 ([1]; IC50 for decrease of AUC of THDOC-potentiated GABA-mediated response, 200 nM THDOC + 0.3 µM GABA, n = 4-14) was 341 nM. The IC50 ([1]; IC50 for decrease of peak current amplitude of THDOC-potentiated GABA-mediated response, 200 nM THDOC + 0.3 µM GABA, n = 4-14) was 563 nM, the AUC ([2]; 2 mg/kg i.v., plasma, mean) was 2205586 min ∗ ng/mL and the AUC ([2]; 10 mg/kg p.o., plasma, mean) was 113568 min ∗ ng/mL. For the same compound, the Cmax [2, 4] was 74500 ng/mL, the Tmax [2, 4] was 0.0833 h and the half-life [2, 4] was 11.3 h. The MRT ([2]; male, Sprague-Dawley, plasma, iv, 2 mg/kg i.v., rat, mean) was 0.277 h, the clearance ([2]; male, Sprague-Dawley, plasma, iv, 2 mg/kg i.v., rat, mean, read-out: Cl (total body clearance)) was 1.09 mL/min/kg and the bioavailability ([2]; male, Sprague-Dawley, plasma, oral, 10 mg/kg p.o. vs 2 mg/kg i.v., dose-normalized AUC, rat, read-out: F (tentative oral bioavailability)) was 1%. The MRT ([2]; male, Sprague-Dawley, plasma, po, 10 mg/kg p.o., rat, mean) was 4.73 h, the Cmax [2, 5] was 504 ng/mL and the Tmax [2, 5] was 0.567 h. It also gave a half-life [2, 5] of 5.17 h, a k el ([2]; male, Sprague-Dawley, rat, iv, 2 mg/kg) of 2e-05 s⁻¹ and a k el ([2]; male, Sprague-Dawley, rat, po, 10 mg/kg) of 4.17e-05 s⁻¹. The “Effect in patients with hepatic encephalopathy” value [3] was “improves EEG, vigilance, and cognition”.
